The results in this text go back to patent publication US9018371B2, “Adenosine derivatives, method for the synthesis thereof, and the pharmaceutical compositions for the prevention and treatment of the inflammatory diseases containing the same as an active ingredient” (FM Therapeutics Co., Ltd., priority 2007, dated 2015).

The target in series [1] is human A3 adenosine receptor (hA3 AR) (Homo sapiens (Human), UniProt P0DMS8). In words: Binding affinity for human A3 adenosine receptor ([125I]AB-MECA, CHO cells). The note with it: for Ki: nM ± SEM, [125I]AB-MECA, CHO cells.
Experimental: (§1) The adenosine derivatives of the present invention were assayed for binding affinity for human A1, AZA and A3 adenosine receptors as follows.
(§2) CHO cells (ATCC No. CCL-61), in which A1 and A3 adenosine receptors were expressed, were cultured in F-12 media (Gibco, U.S.A.) supplemented with 10% fetal bovine serum (FBS) and penicillin/streptomycin (100 units/ml and 100 μg/ml), at 37° C. in a 5% CO2 atmosphere. […] Incubation for 1 hr in a 37° C. incubator was followed by rapid filtration in a vacuum using a cell collector (TOMTEC, U.S.A.). Subsequently, the test tubes were washed three times with 3 ml of the buffer before radioactivity was measured using a γ-counter. […] Ki for binding affinity was determined by subtracting the non-specific binding value from the total binding value. On the basis of the specific binding values, the samples were analyzed for binding affinity to various adenosine receptors.
Series [2] deals with human A1 adenosine receptor (hA1) (Homo sapiens (Human), UniProt P30542). In words: Binding affinity for human A1 adenosine receptor ([3H]CCPA, CHO cells). The note with it: nM ± SEM.
Experimental: as §1, §2
Series [3] addresses human A2A adenosine receptor (hA2A) (Homo sapiens (Human), UniProt P29274). In words: Binding affinity for human A2A adenosine receptor ([3H]CGS-21680, HEK 293 cell). The note with it: nM ± SEM.
Experimental: as §1
Each of the compounds synthesized in the examples was measured for IC50 at least 6 different concentrations, and the measurements were analyzed using PLAT? software to determine Ki values.
Series [4] relates to TPA-induced inflammation of the mouse ear. In words: Anti-inflammatory activity, TPA-induced mouse ear inflammation. It counts as in vivo, ICR mice. The following applies: TPA-treated ear; for percentage of inflammation inhibition: ICR mice, 24 hrs after TPA; for anti-inflammatory activity relative to Examples 2 to 4, on the basis of inhibition percentage: 0.5% in acetone, ICR mice (FIG. 3). As for the experimental part: The adenosine derivatives of the present invention were examined for anti-inflammatory activity in the following animal test. Seven-week-old male ICR mice were treated with TPA (12-O-tetradecanoylphorbol 13-acetate, 20 μl) in the right ear. […] Hydrocortisone was used at the same concentration as a control.
6 hrs after treatment with TPA, the mice were secondarily treated with the adenosine derivatives of the present invention. 24 hrs after TPA treatment, test animals were euthanized using a cervical dislocation method. Samples were obtained from the right ear using a 6 mm diameter punch. The activity was observed by measuring the ear sample using a microbalance. Percentages of inhibition were calculated using the following Equation 1. The compositions and amounts used in these experiments are summarized in Tables 2 to 5 and the anti-inflammatory activities thereof are shown in FIGS. 2 to 5.

Series [5] in a line: Toxicity assay in animals (abdominal administration, 24 hrs observation). The following applies: 20 mg/kg, 10 mg/kg and 1 mg/kg abdominally, observation for 24 hrs.
Experimental: The compounds synthesized in the examples of the present invention were assayed for cytotoxicity in animals.
In series [6] the target is human A2B adenosine receptor (Homo sapiens (Human), UniProt P29275). In words: Agonist or antagonist activity on human A2B adenosine receptor.
The target in series [7] is human A3 adenosine receptor (Homo sapiens (Human), UniProt P0DMS8). In words: Antagonism of Cl-IB-MECA and cAMP inhibition in CHO cells expressing human A3 adenosine receptor. Format: cell-based. The following applies: various concentrations.
Series [8] has as its target rat A3 adenosine receptor (Rattus norvegicus (Rat), UniProt P28647). In words: Binding affinity for rat A3 adenosine receptor expressed in CHO cells.
Setting [9] is: 0.5% in distilled water:acetone (1:4).

A word on the melting point: it is the temperature of the solid-liquid transition. Broadly, the Ki is a dissociation constant, usually derived from enzyme kinetics or from competition with a known ligand.

human A1 adenosine receptor (hA1), sequence (P30542 whole entry): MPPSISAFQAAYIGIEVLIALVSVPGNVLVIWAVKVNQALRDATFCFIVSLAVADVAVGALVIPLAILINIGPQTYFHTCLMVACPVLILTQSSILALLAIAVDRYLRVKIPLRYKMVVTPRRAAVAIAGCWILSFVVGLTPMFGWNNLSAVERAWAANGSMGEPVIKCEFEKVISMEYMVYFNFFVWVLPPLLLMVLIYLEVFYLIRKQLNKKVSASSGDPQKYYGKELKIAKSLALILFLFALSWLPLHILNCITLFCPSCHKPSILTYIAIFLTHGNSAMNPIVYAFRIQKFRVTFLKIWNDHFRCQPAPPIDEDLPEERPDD
human A3 adenosine receptor (hA3 AR), sequence (P0DMS8 whole entry): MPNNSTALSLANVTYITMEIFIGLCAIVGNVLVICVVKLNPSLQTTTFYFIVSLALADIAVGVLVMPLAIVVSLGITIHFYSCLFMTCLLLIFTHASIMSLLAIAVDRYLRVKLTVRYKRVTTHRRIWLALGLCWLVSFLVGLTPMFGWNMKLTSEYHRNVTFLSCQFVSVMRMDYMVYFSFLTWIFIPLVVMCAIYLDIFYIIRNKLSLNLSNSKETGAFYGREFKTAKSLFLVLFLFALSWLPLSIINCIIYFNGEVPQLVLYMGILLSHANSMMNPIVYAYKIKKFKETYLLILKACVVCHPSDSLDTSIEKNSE
human A2A adenosine receptor (hA2A), sequence (P29274 whole entry): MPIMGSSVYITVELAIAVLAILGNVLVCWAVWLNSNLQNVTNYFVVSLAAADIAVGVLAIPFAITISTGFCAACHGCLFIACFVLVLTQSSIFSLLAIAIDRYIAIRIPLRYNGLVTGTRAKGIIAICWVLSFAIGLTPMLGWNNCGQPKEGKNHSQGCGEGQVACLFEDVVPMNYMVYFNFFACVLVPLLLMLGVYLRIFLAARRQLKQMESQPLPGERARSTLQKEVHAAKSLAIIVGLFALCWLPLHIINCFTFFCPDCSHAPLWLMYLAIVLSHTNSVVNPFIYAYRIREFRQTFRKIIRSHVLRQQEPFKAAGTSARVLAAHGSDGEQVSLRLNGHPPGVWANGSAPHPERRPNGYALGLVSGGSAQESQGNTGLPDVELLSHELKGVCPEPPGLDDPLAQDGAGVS
human A3 adenosine receptor, sequence (P0DMS8 whole entry): as the sequence (P0DMS8 whole entry) above
human A2B adenosine receptor, sequence (P29275 whole entry): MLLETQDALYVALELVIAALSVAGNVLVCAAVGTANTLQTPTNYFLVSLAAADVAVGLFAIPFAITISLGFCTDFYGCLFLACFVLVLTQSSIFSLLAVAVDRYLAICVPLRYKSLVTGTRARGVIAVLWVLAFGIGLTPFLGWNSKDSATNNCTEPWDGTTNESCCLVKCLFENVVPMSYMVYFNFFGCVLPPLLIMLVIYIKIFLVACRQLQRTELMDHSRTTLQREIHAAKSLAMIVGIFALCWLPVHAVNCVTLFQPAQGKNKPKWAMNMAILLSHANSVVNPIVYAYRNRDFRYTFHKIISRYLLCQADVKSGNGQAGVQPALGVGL
rat A3 adenosine receptor, sequence (P28647 whole entry): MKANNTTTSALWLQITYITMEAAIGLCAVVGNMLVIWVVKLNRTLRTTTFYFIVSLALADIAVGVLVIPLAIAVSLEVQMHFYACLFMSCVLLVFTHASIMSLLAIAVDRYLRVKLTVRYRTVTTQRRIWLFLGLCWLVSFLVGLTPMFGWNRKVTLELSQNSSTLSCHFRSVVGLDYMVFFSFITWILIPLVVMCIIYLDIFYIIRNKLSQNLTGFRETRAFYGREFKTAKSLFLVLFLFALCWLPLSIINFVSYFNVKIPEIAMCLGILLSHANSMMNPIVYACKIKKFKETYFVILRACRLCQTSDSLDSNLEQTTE

In turn, `OC1CS[C@@H](n2cnc3c(NCc4cccc(I)c4)ncnc32)C1O` (stereo in doubt) [Example 14, (2R,3R,4S)-2-(6-(3-Iodobenzylamino)-9H-purin-9-yl)tetrahydrothiophen-3,4-diol] came in with a melting point of 198.8 to 199.8 °C.
With `CNc1nc(Cl)nc2c1ncn2[C@@H]1SC[C@H](O)[C@@H]1O` [Example 10, 2-(2-Chloro-6-methylamino-purin-9-yl)(2R,3S,4R)-tetrahydrothiophen-3,4-diol], the Ki in series [1] was 3.69 ± 0.25 nM.
For `O=C(O)c1cccc(CNc2nc(Cl)nc3c2ncn3[C@@H]2SCC(O)C2O)c1` (stereo in doubt) [Example 9, 3-((2-chloro-9-((2R,3R,4S)-3,4-dihydroxytetrahydrothiophen-2-yl)-9H-purine-6-ylamino)methyl)benzoic acid], the melting point lay within 254 to 256.99 °C.
`OC1CS[C@@H](n2cnc3c(NCc4cccc(Br)c4)ncnc32)C1O` (stereo in doubt) [Example 13, (2R,3R,4S)-2-(6-(3-bromobenzylamino)-9H-purin-9-yl)tetrahydrothiophen-3,4-diol] showed a melting point of 183 to 184 °C. The Ki in series [2] was found to be 790 ± 190 nM. For the same compound, the inhibition constant Ki in series [3] was 420 ± 32 nM. Further, in series [1], the Ki stood at 6.8 ± 3.4 nM.
In the case of `OC1CS[C@@H](n2cnc3c(NCc4cccc5ccccc45)nc(Cl)nc32)C1O` (stereo in doubt) [Example 8, (2R,3R,4S)-2-(2-Chloro-6-(naphthalen-1-ylmethylamino)-9H-purin-9-yl)tetrahydrothiophen-3,4-diol], the melting point is 226.3 °C (dec.). The same compound yielded a Ki in series [1] of 24.8 ± 8.1 nM. Further, the “percentage of inflammation inhibition” value in [4] (setting [9]) amounted to 53%.
Regarding `COc1ccccc1CNc1nc(Cl)nc2c1ncn2[C@@H]1SCC(O)C1O` (stereo in doubt) [Example 7, (2R,3R,4S)-2-(2-chloro-6-(2-methoxybenzylamino)-9H-purin-9-yl)tetrahydrothiophen-3,4-diol], the melting point came out at 188 °C. The “percentage of inflammation inhibition” value in [4] (setting [9]) is 34%.
In turn, `OC1CO[C@@H](n2cnc3c(NCc4cccc(I)c4)nc(Cl)nc32)[C@H]1O` (stereo partly drawn) [Example 16, (2R,3R,4R)-2-(6-(3-iodobenzylamino)-2-chloro-9H-purin-9-yl)tetrahydrofuro-3,4-diol] returned a melting point of 195.5 to 195.8 °C. Further, in series [1], the “binding affinity for hA3 AR (in words)” value was “high binding affinity and selectivity”; the affinity, expressed as Ki, was 42.9 ± 8.9 nM. Further, in [4] (0.5% in DMSO:acetone (1:9)), the “percentage of inflammation inhibition” value amounted to 79%.
Take `OC1CS[C@@H](n2cnc3c(NCc4cccc(Br)c4)nc(Cl)nc32)C1O` (stereo in doubt) [Example 3, (2R,3R,4S)-2-(2-Chloro-6-(3-bromobenzylamino)-9H-purin-9-yl)tetrahydrothiophen-3,4-diol]: the melting point lay within 184 to 185 °C. In series [1], this compound gave a Ki of 8.99 ± 5.17 nM.
Consider `OC1CS[C@@H](n2cnc3c(NCc4cccc(F)c4)ncnc32)C1O` (stereo in doubt) [Example 11, (2R,3R,4S)-2-(6-(3-fluorobenzylamino)-9H-purin-9-yl)tetrahydrothiophen-3,4-diol], for which the Ki in [2] worked out at 1430 ± 420 nM; in [3], 1260 ± 330 nM; in series [1] it was 7.3 ± 0.6 nM.
For the compound `OC1CS[C@@H](n2cnc3c(NCc4ccccc4Cl)nc(Cl)nc32)C1O` (stereo in doubt) [Example 5, (2R,3R,4S)-2-(2-Chloro-6-(2-chlorobenzylamino)-9H-purin-9-yl)tetrahydrothiophen-3,4-diol], the melting point was 198.7 to 199.7 °C. In series [3], the inhibitory constant (Ki) came to 1600 ± 135 nM. The compound further had a Ki in series [1] of 25.8 ± 6.3 nM. Also, the “percentage of inflammation inhibition” value in series [4] (setting [9]) is listed as 17%.
Turning to `COc1ccc(Cl)cc1CNc1nc(Cl)nc2c1ncn2[C@@H]1SCC(O)C1O` (stereo in doubt) [Example 6, (2R,3R,4S)-2-(2-Chloro-6-(5-chloro-2-methoxybenzylamino)-9H-purin-9-yl)tetrahydrothiophen-3,4-diol], the melting point lay in the range of 188.8 to 189.8 °C. In addition, in [3], affinity was put at a Ki of 4020 ± 1750 nM. In addition, in series [1], the Ki was 12.7 ± 3.7 nM. For the same compound, in series [4], the “anti-inflammatory activity relative to Examples 2 to 4, on the basis of inhibition percentage” value is reported as “four or more times that of the compounds of Examples 2 to 4”.
The compound `OC1CO[C@@H](n2cnc3c(NCc4cccc(Br)c4)nc(Cl)nc32)C1O` (stereo in doubt) [Example 15, (2R,3R,4R)-2-(6-(3-Bromobenzylamino)-2-chloro-9H-purin-9-yl)tetrahydrofuran-3,4-diol] yielded a melting point of 181.5 to 181.7 °C. Besides, in series [1], the “binding affinity for hA3 AR (in words)” value was “high binding affinity and selectivity”; the affinity, expressed as Ki, was 13 ± 6.9 nM. Also, the “percentage of inflammation inhibition” value in series [4] (0.5% in DMSO:acetone (1:9)) is reported as 59%.
Take `OC1CS[C@@H](n2cnc3c(NCc4cccc(Cl)c4)nc(Cl)nc32)C1O` (stereo in doubt) [Example 2, (2R,3R,4S)-2-(2-Chloro-6-(3-chlorobenzylamino)-9H-purin-9-yl)tetrahydrothiophen-3,4-diol]: in series [5], the mortality result is recorded as “None of the members of the three groups died” and the “weight gain or feed intake versus control group” value is given as “No difference in weight gain or feed intake”.
With `OC1CS[C@@H](n2cnc3c(NCc4cccc(Cl)c4)ncnc32)C1O` (stereo in doubt) [Example 12, (2R,3R,4S)-2-(6-(3-Chlorobenzylamino)-9H-purin-9-yl)tetrahydrothiophen-3,4-diol], the figures for the Ki in series [2], in [3] and in [1] were 860 ± 210 nM, 440 ± 110 nM and 1.5 ± 0.4 nM, respectively.
`OC1CS[C@@H](n2cnc3c(NCc4cccc(F)c4)nc(Cl)nc32)C1O` (stereo in doubt) [Example 1, (2R,3R,4S)-2-(2-Chloro-6-(3-fluorobenzylamino)-9H-purin-9-yl)tetrahydrothiophen-3,4-diol] registered a melting point of 183.2 to 183.5 °C. In [1], this compound displayed a Ki of 7.4 ± 1.3 nM. Further, the “anti-inflammatory activity relative to Examples 2 to 4, on the basis of inhibition percentage” value in series [4] is listed as “four or more times that of the compounds of Examples 2 to 4”.
As to `OC1CS[C@@H](n2cnc3c(NCc4cccc(I)c4)nc(Cl)nc32)C1O` (stereo in doubt) [Example 4, (2R,3R,4S)-2-(2-Chloro-6-(3-iodobenzylamino)-9H-purin-9-yl)tetrahydrothiophen-3,4-diol], the “agonist or antagonist on human A2B adenosine receptor (in words)” value in series [6] is on record as “not observed as an agonist or antagonist”. In [7], the “inhibition of the agonist effect of Cl-IB-MECA (in words)” value is “inhibited in a dose-dependent manner”.
Turning to `O[C@@H]1[C@H](O)CS[C@H]1n1cnc2c(NCc3cccc(I)c3)nc(Cl)nc21` [Example 4, (2R,3R,4S)-2-(2-Chloro-6-(3-iodobenzylamino)-9H-purin-9-yl)tetrahydrothiophen-3,4-diol], affinity in [8] was put at a Ki of 3.89 ± 1.15 nM.
